Test results from ChEMBL document CHEMBL5727031, “Metabotropic glutamate receptor negative allosteric modulators (NAMS) and uses thereof” (2018).

Legend:
[1] = (§1) In Vitro GIRK Thallium Flux Assay (60 minutes): Human Embryonic Kidney (HEK-293) cell lines co-expressing rat mGlu receptors 2, 3, 4, 6, 7 or 8 and G protein-coupled inwardly-rectifying potassium (GIRK) channels_ENREF_54 were grown in Growth Media containing 45% DMEM, 45% F-12, 10% FBS, 20 mM HEPES, 2 mM L-glutamine, antibiotic/antimycotic, non-essential amino acids, 700 μg/ml G418, and 0.6 μg/ml puromycin at 37° C. in the presence of 5% CO2. All cell culture reagents were purchased from Invitrogen Corp. (Carlsbad, Calif.) unless otherwise noted. Compound activity at the group II (mGlu2 and mGlu3) mGlus was assessed using thallium flux through GIRK channels. Briefly, cells were plated into 384-well, black-walled, clear-bottomed poly-D-lysine-coated plates at a density of 15,000 cells/20 μL/well in DMEM containing 10% dialyzed FBS, 20 mM HEPES, and 100 units/mL penicillin/streptomycin (assay media). Plated cells were incubated overnight at 37° C. in the presence of 5% CO2. The following day, the medium was exchanged from the cells to assay buffer [Hanks' balanced salt solution (Invitrogen) containing 20 mM HEPES, pH 7.3] using an ELX405 microplate washer (BioTek), leaving 20 μL/well, followed by the addition of 20 μL/well FluoZin2-AM (330 nM final concentration) indicator dye (Invitrogen; prepared as a stock in DMSO and mixed in a 1:1 ratio with Pluronic acid F-127) in assay buffer. Cells were incubated for 1 h at room temperature, and the dye exchanged to assay buffer using an ELX405, leaving 20 μL/well. Test compounds were diluted to 2 times their final desired concentration in assay buffer (0.3% DMSO final concentration). Agonists were diluted in thallium buffer [125 mM sodium bicarbonate (added fresh the morning of the experiment), 1 mM magnesium sulfate, 1.8 mM calcium sulfate, 5 mM glucose, 12 mM thallium sulfate, and 10 mM HEPES, pH 7.3] at 5 times the final concentration to be assayed. Cell plates and compound plates were loaded onto a kinetic imaging plate reader (FDSS 6000 or 7000; Hamamatsu Corporation, Bridgewater, N.J.). Appropriate baseline readings were taken (10 images at 1 Hz; excitation, 470±20 nm; emission, 540±30 nm) and test compounds were added in a 20 μL volume and incubated for either 2.5 min or 60 min as indicated before the addition of 10 μL of thallium buffer with or without agonist. After the addition of agonist, data were collected for approximately an additional 60 min. Data were analyzed using Excel (Microsoft Corp, Redmond, Wash.). The slope of the fluorescence increase beginning 5 s after thallium/agonist addition and ending 15 s after thallium/agonist addition was calculated, corrected to vehicle and maximal agonist control slope values, and plotted in using either XLfit (ID Business Solutions Ltd) or Prism software (GraphPad Software, San Diego, Calif.) to generate concentration-response curves. Potencies were calculated from fits using a four-point parameter logistic equation. For concentration-response curve experiments, compounds were serially diluted 1:3 into 10 point concentration response curves and were transferred to daughter plates using an Echo acoustic plate reformatter (Labcyte, Sunnyvale, Calif.). Test compounds were applied and followed by EC80 concentrations of glutamate.; conditions: HEK293, 1 h
[2] = as §1; conditions: HEK293, 1 h; remark: listed apart in the source
[3] = as §1, with “Assay (2.5” for “Assay (60”, “additional 2.5” for “additional 60”; conditions: HEK293, 2.5 min
[4] = as above; conditions: HEK293, 2.5 min; remark: listed apart in the source

| Structure (SMILES) | EC50 [1] [µM] | EC50 [2] [µM] | EC50 [3] [µM] | EC50 [4] [µM] |
| --- | --- | --- | --- | --- |
| Fc1cccc(-c2cccc(-c3csc(-c4ccccc4)n3)c2)c1 | > 30 | 0.35 | 0.64 | > 10 |
| Cc1cc2c(cc1C(F)(F)F)NC(=O)CC(c1cccc(C#Cc3ccccc3)c1)=N2 | > 10 | > 10 |  |  |
| Clc1ccc(-c2cccc(-c3csc(-c4ccccc4)n3)c2)cc1 | 1.33 | 0.8 | 0.57 | 0.79 |
| O=C(O)c1cc(-c2ccc(-c3csc(-c4ccccc4)n3)cc2)ccc1F |  | > 30 |  |  |
| FC(F)(F)c1ccc(-c2nc(-c3cccc(-c4ccccc4)c3)nn2-c2ccccc2)cn1 | 0.85 | > 10 | > 10 | 5.56 |
| O=C(O)c1cc(-c2cccc(-c3cnc(-c4ccccc4)s3)c2)ccc1F | > 10 |  |  |  |
| O=C1CC(c2ccnc(Br)c2)=Nc2ccc(-c3ccc(C(F)(F)F)cc3C(F)(F)F)cc2N1 | > 10 |  |  |  |
| O=C(O)c1ccccc1-c1cccc(-c2nc(-c3ccccc3)n(-c3ccccc3)n2)c1 | > 10 | > 30 |  |  |
| O=C(O)c1cc(-c2cccc(Oc3nc(-c4ccco4)cc(C(F)(F)F)n3)c2)ccc1F |  | > 30 |  |  |
| N#Cc1cccc(C2=Nc3ccc(Br)cc3NC(=O)C2)c1 | > 30 | > 30 |  |  |
| Fc1ccc(-c2cccc(-c3csc(-c4cc5ccccc5o4)n3)c2)cc1 | > 10 | 1.93 | 2.57 | 3.32 |
| Fc1ccc(-c2cccc(-c3csc(-c4ccc(C(F)(F)F)nc4)n3)c2)cc1 | 2.55 | 0.85 | 1.35 | 3.11 |
| O=C(O)c1cccc(-c2cccc(-c3cn(-c4ccccc4)c(-c4ccccc4)n3)c2)c1 |  | > 10 |  |  |
| Fc1ccccc1-c1cccc(-c2csc(-c3ccccc3)n2)c1 | > 30 | 3.4 | 1.59 | > 30 |
| Fc1ccc(-c2cccc(-c3csc(-c4cc5ccccc5s4)n3)c2)cc1 | > 10 | 1.92 | > 10 | > 10 |
| Cc1cc(NC(=O)OC(C)(C)C)c(NC(=O)CC(=O)c2cccc(OCc3ccccc3)c2)cc1C(F)(F)F | 0.74 | 2.36 | > 10 | 2.93 |
| Fc1ccccc1-c1cccc(-c2nc(-c3ccccc3)n(-c3ccccc3)n2)c1 | 2.29 | > 10 | > 10 | 4.45 |
| Fc1ccccc1-c1cccc(-c2nsc(-c3ccccc3)n2)c1 | > 10 | 0.11 | 0.89 | > 10 |
| COc1ccc(-n2nc(-c3cccc(-c4ccccc4)c3)nc2-c2ccccc2)cc1 | 0.46 | 6.58 | > 10 | 2.96 |

| Structure (SMILES) | EC50 [1] [µM] | EC50 [2] [µM] | EC50 [3] [µM] | EC50 [4] [µM] |
| --- | --- | --- | --- | --- |
| c1ccc(-c2cccc(-c3csc(-c4ccc5ccccc5c4)n3)c2)cc1 | > 10 | 4.98 | > 10 | > 30 |
| O=C(O)c1cccc(-c2cccc(-c3cc(-c4ccccc4)sn3)c2)c1 | > 10 |  |  |  |
| Cc1noc(C)c1-c1cc(C(F)(F)F)nc(-c2cccc(-c3ccc(F)c(C(=O)O)c3)c2)n1 | > 10 | > 10 |  |  |
| Clc1cccc(-c2cccc(-c3csc(-c4ccccc4)n3)c2)c1 | > 10 | > 10 | > 10 | > 10 |
| Fc1ccc(-c2cccc(-c3csc(-c4ccccc4)c3)c2)cc1 | > 10 | > 10 | > 10 | > 10 |
| Fc1ccc(-c2csc(-c3ccccc3)n2)cc1 | > 30 | > 30 | > 10 | > 30 |
| Clc1ccc(-c2nc(-c3cccc(-c4ccccc4)c3)cs2)cn1 | 0.83 | 0.27 | 3.83 | > 10 |
| c1ccc(-c2cccc(-c3csc(-c4cccc5ccccc45)n3)c2)cc1 | > 30 | > 10 | > 10 | > 30 |
| CC(C)(C)OC(=O)Nc1ccc(C(=O)OC(C)(C)C)cc1NC(=O)CC(=O)c1ccnc(C#N)c1 |  | > 30 |  |  |
| Cc1cc2c(cc1C(F)(F)F)NC(=O)CC(c1cccc(Oc3ncccn3)c1)N2 (racemic) |  |  | > 10 |  |
| c1ccc(-c2cccc(-c3csc(-c4ccccc4)n3)c2)cc1 | > 10 |  |  |  |
| Fc1ccc(-c2cccc(-c3csc(-c4ccoc4)n3)c2)cc1 | > 10 | 2.5 | 2.26 | > 10 |
| Cc1cc2c(cc1C(F)(F)F)NC(=O)CC(c1cccc(C#C[Si](C)(C)C)c1)N2 (stereo unspecified) | 4.53 | 4.47 |  |  |
| Cc1nc(-c2cccc(-c3ccc(F)cc3)c2)cs1 | > 10 | > 10 | > 10 | > 10 |
| Fc1ccc(-c2ccc(-c3csc(-c4ccccc4)n3)s2)cc1 | > 10 | > 10 | > 10 | > 10 |
| Cc1cc2c(cc1C(F)(F)F)NC(=O)CC(c1cccc(Oc3ccccc3)c1)N2 (stereo unspecified) | > 10 | > 10 |  |  |
| COc1ccc(-c2nc(-c3cccc(-c4ccccc4)c3)cs2)cc1OC | > 10 | 1.1 | 2.58 | 4.02 |
| c1ccc(-c2cccc(-c3nc(-c4ccoc4)n(-c4ccccc4)n3)c2)cc1 | 2.63 | 3.78 | > 10 | > 10 |
| Cc1cc(-c2cccc(C3CC(=O)Nc4cc(NC(=O)Oc5ccccc5)ccc4N3)c2)cc(C)n1 (stereo unspecified) | > 10 | > 10 |  |  |

| Structure (SMILES) | EC50 [1] [µM] | EC50 [2] [µM] | EC50 [3] [µM] | EC50 [4] [µM] |
| --- | --- | --- | --- | --- |
| Cc1cc(-c2cccc(C3CC(=O)Nc4cc(NC(=O)OCc5ccccc5)ccc4N3)c2)cc(C)n1 (racemic) |  |  | > 10 |  |
| O=C(O)c1ccc(-c2cccc(-c3nc(-c4ccc(C(F)(F)F)nc4)cc(C(F)(F)F)n3)c2)cc1 | > 10 | > 10 |  |  |
| Cc1cc2c(cc1C(F)(F)F)NC(=O)CC(c1cccc(Oc3cccc(Br)c3)c1)=N2 |  | > 10 |  |  |
| O=C1CC(c2cccc(Br)c2)Nc2ccc(NC(=O)OCc3ccccc3)cc2N1 (stereo unspecified) |  | > 10 |  |  |
| Cc1cc2c(cc1C(F)(F)F)NC(=O)CC(c1cccc(Br)c1)=N2 | > 10 | > 10 |  |  |
| Cc1ccccc1-c1cc(C(F)(F)F)nc(-c2cccc(-c3ccc(F)c(C(=O)O)c3)c2)n1 | > 10 |  |  |  |
| Cc1cc2c(cc1C(F)(F)F)NC(=O)CC(c1cccc(Oc3cc(F)cc(F)c3)c1)=N2 |  | > 10 |  |  |
| Cc1cc2c(cc1C(F)(F)F)NC(=O)CC(c1cccc(OCc3ccccc3)c1)N2 (stereo unspecified) |  | > 10 |  |  |
| NS(=O)(=O)c1cccc(-c2cn(-c3nc(-c4ccc(C(F)(F)F)nc4)cc(C(F)(F)F)n3)cn2)c1 |  | > 10 |  |  |
| O=C(O)c1ccccc1-c1cccc(-c2csc(-c3ccccc3)n2)c1 | > 10 | > 10 |  |  |
| O=C(O)c1cccc(-c2cccc(-c3coc(-c4ccccc4)n3)c2)c1 | > 10 |  |  |  |
| c1ccc(-c2cccc(-c3nc(-c4ccccc4)n(-c4ccccc4)n3)c2)cc1 |  | > 10 | > 10 |  |
| Cc1cc(NC(=O)OC(C)(C)C)c(NC(=O)CC(=O)c2cccc(-n3ccc4ccccc43)c2)cc1C(F)(F)F | > 10 | > 10 |  |  |
| O=C(O)c1cccc(-c2cccc(-c3nc(-c4ccccc4)nn3-c3ccccc3)c2)c1 | > 10 | > 10 |  |  |
| O=C(O)c1ccccc1-c1cccc(-c2nc(-c3ccc(C(F)(F)F)nc3)cc(C(F)(F)F)n2)c1 | > 10 | > 10 |  |  |
| O=C(O)c1cc(-c2cccc(-c3nc(-c4cc(C(F)(F)F)cc(C(F)(F)F)c4)cc(C(F)(F)F)n3)c2)ccc1F | > 10 |  |  |  |
| COc1ccc(-c2cccc(-c3nc(-c4ccco4)cc(C(F)(F)F)n3)c2)cc1C(=O)O | > 10 |  |  |  |
| c1ccc(-c2nc(-c3cccc(-c4cccc(-c5nn[nH]n5)c4)c3)cs2)cc1 | > 10 |  |  |  |
